Common to all, as to assay: NCI tumour cell line growth inhibition, 48 h
The test system of assay [1] is A498.
Assay [2] relates to ACHN.
For assay [3], the system named is COLO 205.
Assay [4] relates to HCT-116.
For assay [5], the system named is HOP-62.
Assay [6] has as its system Hs-578T.
Assay [7] deals with M14.
The test system of assay [8] is MDA-MB-231.
Assay [9] has as its system MDA-MB-435.
For assay [10], the system named is MDA-N.
The test system of assay [11] is Malme-3M.
Assay [12] has as its system NCI-H226.
The test system of assay [13] is NCI-H23.
Assay [14] concerns OVCAR-3.
The subject of assay [15] is OVCAR-4.
Assay [16] relates to OVCAR-8.
In assay [17] the test system is SR.
In assay [18] the test system is SW-620.
The test system of assay [19] is U-251.
For assay [20], the system named is UACC-257.

The structures appear in SMILES notation.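 Step 1: Grow cells in 96-well plates. Step 2: Expose to compound for 48 hours at 5 concentrations. Step 3: Interpolate endpoints linearly; if unreached, use highest concentration. GI50: concentration for 50% inhibition of growth.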 Calls of active or inactive are those of the source. Cut-off read from the data, not from the text of the source: active = GI50 up to about 1.1 µM and inactive = higher.

As to `CN(C)c1ccc(C(=O)NCCCCCCC(=O)NO)cc1`, the GI50 was 0.711 µM (active) in [1]; 0.67 µM (active) in [2]; 0.33 µM (active) in [3]; 0.169 µM (active) in assay [4]; 2.3 µM (inactive) in assay [5]; 0.9 µM (active) in assay [6]. Further, the GI50 is 0.565 µM (active) in assay [7]; 0.697 µM (active) in assay [8]; 0.264 µM (active) in assay [9]; 0.233 µM (active) in [10]; 0.0948 µM (active) in assay [11]; 2.75 µM (inactive) in assay [12]. Besides, the GI50 in assay [13] is 0.562 µM (active); in assay [14] it was 0.519 µM (active); in [15] it was 1.64 µM (inactive); in [16], 0.153 µM (active); in assay [17], 0.205 µM (active); in assay [18] it was 0.312 µM (active). Moreover, the figures for the GI50 in [19] and in assay [20] were 0.486 µM (active) and 0.237 µM (active), respectively.

Turning to `N#CCCN(CCCN(C(=O)Nc1ccc(NC(=O)N(CCCN(CCC#N)C(N)=O)c2ccccc2)cc1)c1ccccc1)C(N)=O`, the GI50 in assay [1], in assay [2], in assay [3], in assay [4], in [5] and in assay [6] was > 100 µM (inactive) in each case. Further, the GI50 in assay [7], in assay [8], in [9], in [10], in [11] and in assay [12] was > 100 µM (inactive) each time. Moreover, the GI50 in assay [13], in assay [14], in assay [15], in assay [16], in assay [17] and in assay [18] was > 100 µM (inactive) in each case. The GI50 in assay [19] and in assay [20] was > 100 µM (inactive) throughout.

As to `CCSCC(N)C(=O)O` (stereo not given), the GI50 in assay [1], in assay [2], in assay [3], in assay [4], in assay [5] and in [6] was > 100 µM (inactive) throughout. Besides, the GI50 in assay [7], in [8], in assay [9], in assay [10], in assay [11] and in [12] was > 100 µM (inactive) each time. Further, the GI50 in [13], in [14], in assay [15], in assay [16], in assay [17] and in [18] was > 100 µM (inactive) throughout. Moreover, the GI50 in assay [19] and in assay [20] was > 100 µM (inactive) each time.

On to `Cn1ccnc1CC(C)(O)c1ccccc1` (stereo not given), for which the GI50 in [1], in assay [2], in [3], in assay [4], in assay [5] and in assay [6] was > 100 µM (inactive) throughout. For the same compound, the GI50 in assay [7], in [8], in [9], in assay [10], in [11] and in assay [12] was > 100 µM (inactive) each time. Further, the GI50 in assay [13], in [14], in [15], in assay [16], in assay [17] and in [18] was > 100 µM (inactive) in each case. For the same compound, the GI50 in assay [19] and in assay [20] was > 100 µM (inactive) throughout.

Turning to `CN(CC1(CO)CCC1)c1cc(Cl)nc(N)n1`, the GI50 in assay [1], in assay [2], in assay [3], in [4], in assay [5] and in assay [6] was > 100 µM (inactive) each time. The GI50 in assay [7], in [8], in [9], in assay [10], in assay [11] and in assay [12] was > 100 µM (inactive) each time. The GI50 in [13] is > 100 µM (inactive); in [14], > 100 µM (inactive); in assay [15], 58.9 µM (inactive); in assay [16] it was > 100 µM (inactive); in assay [17], > 100 µM (inactive); in assay [18], > 100 µM (inactive). Besides, the GI50 in assay [19] and in [20] was > 100 µM (inactive) throughout.

In the case of `CN(C)CCNC(=O)C(C)(C)Oc1ccc(C(=O)c2ccc(Cl)cc2)cc1Cl`, the GI50 is 16.1 µM (inactive) in assay [1]; 11 µM (inactive) in [2]; 1.82 µM (inactive) in [3]; 7.4 µM (inactive) in assay [4]; 11.5 µM (inactive) in assay [5]; 6.14 µM (inactive) in assay [6]. For the same compound, the GI50 is 2.45 µM (inactive) in assay [7]; 10.9 µM (inactive) in assay [8]; 5.6 µM (inactive) in assay [9]; 4.45 µM (inactive) in assay [10]; 5.01 µM (inactive) in assay [11]; 14.7 µM (inactive) in assay [12]. Also, the GI50 is 9.86 µM (inactive) in assay [13]; 12.6 µM (inactive) in assay [14]; 14.5 µM (inactive) in [15]; 11.8 µM (inactive) in assay [16]; 6.84 µM (inactive) in assay [17]; 5.26 µM (inactive) in [18]. The results for the GI50 in assay [19] and in [20] were 7.05 µM (inactive) and 2 µM (inactive), respectively.

Take `C[n+]1c2ccccc2c(CNC(CCC(N)=O)C(=O)O)c2ccccc21` (stereo not given): the GI50 in assay [1] is 0.6 µM (active); in [2], 1.76 µM (inactive); in assay [3], 0.525 µM (active); in assay [4], 0.302 µM (active); in assay [5] it was 4.94 µM (inactive); in [6] it was 5.68 µM (inactive). The GI50 in assay [7] was 3.41 µM (inactive); in assay [8] it was 5.36 µM (inactive); in assay [9], 2.55 µM (inactive); in assay [10], 2.87 µM (inactive); in [11], 4.44 µM (inactive); in [12], 8.3 µM (inactive). In addition, the GI50 is 3.9 µM (inactive) in [13]; 2.31 µM (inactive) in [14]; 3.46 µM (inactive) in [15]; 3.39 µM (inactive) in [16]; 1.07 µM (active) in assay [17]; 0.506 µM (active) in assay [18]. The GI50 was 3.31 µM (inactive) in [19] and 4.31 µM (inactive) in [20].

The record behind these values is ChEMBL document CHEMBL1201862, “PubChem BioAssay data set” (2004).
